The results in this text go back to patent US20170333509A1, “MAILLARD REACTION PRODUCT-DECOMPOSING AGENT” (ARKRAY, Inc., priority 2016, published 2017).

Molecules are shown by their SMILES.

Assay [1] has as its system AGEs modified bovine serum albumin (AGE-BSA) cross-linked to collagen. Briefly: AGEs Cross-Link Breaking Effect Confirmatory Test 2 (AGE-BSA cross-linked to collagen-coated microplate, ELISA). Type of assay: biochemical. To be noted: cross-link breaking reaction at 37° C. for 18 hours. On the procedure: The test was carried out according to the description in Sara Vasan et al. (Nature, 382, pp 275-278 (1996)).
300 μL/well of SuperBlock T20 (PBS) Blocking Buffer was added to a commercially available 96-well microplate precoated with collagen, which then was reacted at 37° C. for one hour. After the reaction, it was washed with 0.05% polyethylene (20) sorbitan monolaurate (Tween 20)/PBS(−), and then AGEs modified bovine serum albumin (AGE-BSA) was added to each well of the microplate, which then was subjected to a crosslinking reaction at 37° C. for four hours. After the reaction, it was washed with Tween 20/PBS(−). Thereafter, a plant extract was added to each well and thereby it was subjected to a cross-link breaking (cleaving) reaction at 37° C. for 18 hours. After that, it was washed with Tween 20/PBS(−) and a primary antibody (anti-albumin bovine serum rabbit-polyclonal) was added thereto, which then was reacted at room temperature for 30 minutes. […] As a reaction stop solution, 1N HCl was added thereto, and the absorbance at 450 nm (dominant wavelength)/630 nm (complementary wavelength) was measured with a microplate reader. The amount of AGE-BSA that remained was determined from a calibration curve in which the amount of AGE-BSA was varied. Furthermore, the AGE-BSA decomposition rate (Collagen cross-link decomposition rate) was determined using the following formula. […]
For orientation: An ELISA detects its analyte on a solid surface through an enzyme-linked reagent.

Assay [2] can be described thus: AGEs Cross-Link Breaking Effect Confirmatory Test 1 (benzoic acid from PPD by reverse-phase HPLC). Conditions: plant extract (hot water, 80° C.) or 10 mmol/L PTB : 10 mmol/L PPD : 0.2 mol/L phosphate buffer pH 7.4 = 5:1:4, 37° C., eight hours, n=3. Type of assay: biochemical. On the procedure:
The test was carried out according to the description in […] al. (Nature, 382, pp 275-278 (1996)). […] A plant extract, 10 mmol/L of PPD, and 0.2 mol/L of phosphate buffer solution (pH 7.4) were mixed together at a ratio of 5:1:4 and then were reacted at 37° C. for eight hours (n=3). After completion of the reaction, hydrochloric acid was added thereto to stop the reaction. […] The amount of benzoic acid contained in the reaction solution was determined by subtracting the amount of benzoic acid contained in the sample, which was measured separately. Since 1 mol of PPD produces 1 mol of benzoic acid, the cross-link breaking rate was calculated by the following formula. Cross-link breaking rate (%)={(A-B)/C}×100 A: The amount of benzoic acid contained in the reaction solution B: The amount of benzoic acid contained in the sample C: The amount of PPD provided for the reaction (the amount of the substrate) As a control, a test was carried out using 10 mmol/L of PTB instead of the plant extract.

Consider `O=C1O[C@H]2[C@@H]3OC(=O)c4cc(O)c(O)c(O)c4-c4c(O)c(O)c5oc(=O)c6c(c(O)c(O)c7oc(=O)c4c5c76)-c4c(cc(O)c(O)c4O)C(=O)OC[C@H]3OC(O)[C@@H]2OC(=O)c2cc(O)c(O)c(O)c2-c2c1cc(O)c(O)c2O` (mixture of isomers) [Punicalagin, punicalagin], for which the “Collagen Cross-Link Decomposition Rate (%) (AGE-BSA decomposition rate)” value in assay [1] worked out at 65.7%. Besides, in assay [1] (absorbance 450 nm/630 nm, calibration curve), the “Amount of Remaining AGE-BSA” value amounted to 343.3 ng.
As for `O=C(C[n+]1ccsc1)c1ccccc1.[Br-]` [PTB, N-phenacylthiazolium bromide], the “Cross-Link Breaking Rate (%) (Mean Value ± Standard Deviation)” value in assay [2] is given as 20.47 ± 0.29%.
